# Laboratory results taken from patent US8673940B2, “Compounds for the treatment of diseases associated with amyloid or amyloid-like proteins” (AC Immune SA, priority 2006, dated 2014).
# Counter-ions that a name gives are not always drawn. Like-named read-outs stand apart in the source and are kept apart here.
# How the values were obtained:
# [1] = target: T1, amyloid beta (Aβ) 1-42 peptide (Homo sapiens, UniProt P05067); assay: Thioflavin T spectrofluorescence assay, inhibition of Aβ1-42 aggregation; type: biochemical
# T1 construct: amyloid beta (Aβ) 1-42 peptide; purchased Bachem
# T1 sequence (P05067 672-713 limits assumed): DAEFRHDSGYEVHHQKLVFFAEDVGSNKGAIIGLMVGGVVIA
# Method: A number of the small molecules were tested for their capacity to inhibit the aggregation of amyloid beta (Aβ) 1-42 peptide using a thioflavin T spectrofluorescence assay.
# Aβ1-42 lyophilized powder (Bachem) was reconstituted in hexafluoroisopropanol (HFIP) to 1 mM. The peptide solution was sonicated for 15 min at room temperature, agitated overnight, and aliquots were placed into non-siliconized microcentrifuge tubes. The HFIP was then evaporated under a stream of argon. The resulting peptide film was dried under vacuum for 10 min, tightly sealed and stored at −80° C. until used.
# To assay for the small molecule-mediated inhibition of Aβ1-42 aggregation, the small molecules were dissolved before each experiment in anhydrous dimethyl sulfoxide (DMSO, Sigma-Aldrich) to reach a concentration of 7.4 mM. Aβ1-42 peptide film was dissolved in DMSO to reach 400 μM. Assay solution in PBS buffer was prepared in non-siliconized incubation tubes to reach the following concentrations: 330 μM small molecule, 33 μM Aβ1-42, 10 μM thioflavin T (ThT), and 12.8% DMSO. Therefore, the final molar ratio of small molecule to Aβ1-42 was 10:1. A positive control without a small molecule was prepared to measure maximum RFU. A negative control without Aβ1-42 was prepared for each small molecule. 3-Aminopyrazole trimer (Trimer) was tested in all assays to ascertain reproducibility between independent experiments. The solutions were incubated for 24 hrs at 37° C., and the spectrofluorescence (relative fluorescence units; RFU) was read in six replicates in black 384-well assay plates (Perkin-Elmer) on a Perkin-Elmer FluoroCount spectrofluorometer. Inhibition of aggregation is expressed as mean % inhibition or ±1 standard deviation (SD) according to the following equation: […]
# Cut-off criterium for the selection of functional molecules was defined at 50% inhibition capacity.
# The small molecules were evaluated for their capacity to mediate inhibition of Aβ1-42 aggregation at a 10:1 small molecule to Aβ1-42 molar ratio. The results are expressed as mean±standard deviation of two independent experiments.
# [2] = 330 μM small molecule, 33 μM Aβ1-42 (10:1 molar ratio), 24 hrs at 37° C., mean ± SD of two independent experiments, read-out: % inhibition
Structure (SMILES),inhibition at 330 µM ([1]; 24 h),melting point,further results
"CNc1ncc(CNc2ncc(Cc3ccccc3)s2)s1 [Compound 2ah, 5-Benzyl-N-((2-(methylamino)thiazol-5-yl)methyl)thiazol-2-amine dihydrochloride]",35.7 ± 5.6%,,
"Cc1ccc(-c2csc(NCc3cnc(NCc4ccccc4)s3)n2)cc1 (as salt: hydrochloride) [Compound 2j, N-Benzyl-5-((4-p-tolylthiazol-2-ylamino)methyl)thiazol-2-amine dihydrochloride]",,106 to 108 °C,
"Cc1ccc(-c2csc(NCc3cnc(Nc4ccccn4)s3)n2)cc1 [Compound 2z, N-(Pyridin-2-yl)-5-((4-p-tolylthiazol-2-ylamino)methyl)thiazol-2-amine trihydrochloride]",58.7 ± 3%,,
"Fc1ccc(NCc2ccc(NCc3ccccc3)nc2)nc1 [Compound 2q, N-Benzyl-5-((5-fluoropyridin-2-ylamino)methyl)pyridin-2-amine]",,,"inhibition at 330 µM [1, 2]: 45 ± 8.3%"
"CNc1ncc(CNc2nc(Cc3ccccc3)cs2)s1 [Compound 2af, 4-Benzyl-N-((2-(methylamino)thiazol-5-yl)methyl)thiazol-2-amine dihydrochloride]",41.3 ± 9.2%,,
"Cc1ccc(-c2csc(NCc3cnc(Nc4ccccn4)s3)n2)cc1 (as salt: hydrochloride) [Compound 2z, N-(Pyridin-2-yl)-5-((4-p-tolylthiazol-2-ylamino)methyl)thiazol-2-amine trihydrochloride]",,169 to 170 °C,
"CCCCNc1cccc(CNc2cc(-c3ccc(F)cc3)[nH]n2)n1 [Compound 2am, N-Butyl-6-((5-(4-fluorophenyl)-1H-pyrazol-3-ylamino)methyl)pyridin-2-amine]",,93 to 94 °C,
"Cc1ccc(-c2csc(NCc3cnc(NCc4ccccc4)s3)n2)cc1 [Compound 2j, N-Benzyl-5-((4-p-tolylthiazol-2-ylamino)methyl)thiazol-2-amine dihydrochloride]",70.7 ± 6.8%,,
"c1ccc(CNc2ncc(CNc3nc(-c4cccs4)cs3)s2)cc1 (as salt: hydrochloride) [Compound 2al, N-Benzyl-5-((4-(thiophen-2-yl)thiazol-2-ylamino)methyl)thiazol-2-amine dihydrochloride]",,97 to 99 °C,
"CNc1ncc(CNc2nccs2)s1 [Compound 2w, N-Methyl-5-((thiazol-2-ylamino)methyl)thiazole-2-amine dihydrochloride]",13.9 ± 12.9%,,
"Cc1ccc(-c2cc(CNc3cc(-c4ccc(C)cc4)[nH]n3)n[nH]2)cc1 [Compound 2a, 5-p-Tolyl-N-((5-p-tolyl-1H-pyrazol-3-yl)methyl)-1H-pyrazol-3-amine dihydrochloride]",65.3 ± 2.6%,,
"Cc1ccc(-c2cnc(NCc3cnc(NCc4ccccc4)s3)s2)cc1 [Compound 2h, N-Benzyl-5-((5-p-tolylthiazol-2-ylamino)methyl)thiazol-2-amine dihydrochloride]",31.9 ± 10.1%,,
"c1ccc(CNc2cccc(CNc3cc(-c4cccs4)[nH]n3)n2)cc1 [Compound 2ac, N-benzyl-6-((5-(thiophen-2-yl)-1H-pyrazol-3-ylamino)methyl)pyridin-2-amine]",,,"inhibition at 330 µM [1, 2]: 78.5 ± 1.3%"
"CNc1ncc(CNc2nc(-c3ccc(Cl)cc3)cs2)s1 (as salt: hydrochloride) [Compound 2aa, 4-(4-Chlorophenyl)-N-((2-(methylamino)thiazol-5-yl)methyl)thiazol-2-amine dihydrochloride]",,122 to 123 °C,
"c1ccc(CNc2ncc(CNc3nc(Cc4ccccc4)cs3)s2)cc1 [Compound 2ae, 4-Benzyl-N-((2-(benzylamino)thiazol-5-yl)methyl)thiazol-2-amine dihydrochloride]",51.2 ± 1.5%,,
"Fc1ccc(-c2cc(CNc3cccc(NCc4ccccc4)n3)n[nH]2)cc1 [Compound 2s, N^2-benzyl-N^6-((5-(4-fluorophenyl)-1H-pyrazol-3-yl)methyl)pyridine-2,6-diamine]",,,"inhibition at 330 µM [1, 2]: 55.1 ± 6.4%"
"Cc1ccc(-c2cnc(NCc3cnc(NCc4ccccc4)s3)s2)cc1 (as salt: hydrochloride) [Compound 2h, N-Benzyl-5-((5-p-tolylthiazol-2-ylamino)methyl)thiazol-2-amine dihydrochloride]",,105 to 106 °C,

Structure (SMILES),inhibition at 330 µM ([1]; 24 h),melting point,further results
"Cc1ccc(-c2cc(CNc3cc(CNc4cc(-c5ccc(C)cc5)[nH]n4)n[nH]3)n[nH]2)cc1 [Compound 2ai, 5-p-Tolyl-N-((5-((5-p-tolyl-1H-pyrazol-3-yl)methylamino)-1H-pyrazol-3-yl)methyl)-1H-pyrazol-3-amine trihydrochloride]",84.8%,,
"CNc1ncc(CNc2nc(-c3ccc(C)cc3)cs2)s1 [Compound 2n, N-Methyl-5-((4-p-tolylthiazol-2-ylamino)methyl)thiazol-2-amine dihydrochloride]",27.8 ± 9.9%,,
"c1ccc(CNc2ncc(CNc3ncc(Cc4ccccc4)s3)s2)cc1 (as salt: hydrochloride) [Compound 2ag, 5-Benzyl-N-((2-(benzylamino)thiazol-5-yl)methyl)thiazol-2-amine dihydrochloride]",,96 to 97 °C,
"Nc1cccc(NCc2ccc(NCc3ccccc3)nc2)n1 [Compound 2y, N^2-((6-(benzylamino)pyridin-3-yl)methyl)pyridine-2,6-diamine]",,,"inhibition at 330 µM [1, 2]: 57 ± 15.9%"
"CNc1ncc(CNc2ncc(-c3ccc(C)cc3)s2)s1 [Compound 2o, N-Methyl-5-((5-p-tolylthiazol-2-ylamino)methyl)thiazol-2-amine dihydrochloride]",39.6 ± 2.8%,,
"c1ccc(CNc2ncc(CNc3nc(Cc4ccccc4)cs3)s2)cc1 (as salt: hydrochloride) [Compound 2ae, 4-Benzyl-N-((2-(benzylamino)thiazol-5-yl)methyl)thiazol-2-amine dihydrochloride]",,78 to 79 °C,
"CCCNc1ncc(CNc2ncc(CNc3nc(-c4ccc(C)cc4)cs3)s2)s1 [Compound 2ad, N-Propyl-5-((5-((4-p-tolylthiazol-2-ylamino)methyl)thiazol-2-ylamino)methyl)thiazol-2-amine trihydrochloride]",82.1 ± 2.2%,,
"c1ccc(CNc2ncc(CNc3nc(-c4cccs4)cs3)s2)cc1 [Compound 2al, N-Benzyl-5-((4-(thiophen-2-yl)thiazol-2-ylamino)methyl)thiazol-2-amine dihydrochloride]",66.1 ± 15.4%,,
"Fc1ccc(-c2cc(NCc3cnc(NCc4ccccc4)s3)n[nH]2)cc1 [Compound 2k, N-Benzyl-5-((5-(4-fluorophenyl)-1H-pyrazol-3-ylamino)methyl)thiazol-2-amine dihydrochloride]",81.2 ± 7.3%,,
"CNc1ncc(CNc2ncc(Cc3ccccc3)s2)s1 (as salt: hydrochloride) [Compound 2ah, 5-Benzyl-N-((2-(methylamino)thiazol-5-yl)methyl)thiazol-2-amine dihydrochloride]",,76 to 77 °C,
"c1ccc(Nc2ncc(CNc3nccs3)s2)nc1 [Compound 2p, N-(Pyridin-2-yl)-5-((thiazol-2-ylamino)methyl)thiazol-2-amine trihydrochloride]",43.6 ± 2.1%,,
"CCCNc1ncc(CNc2ncc(CNc3nc(-c4ccc(C)cc4)cs3)s2)s1 (as salt: hydrochloride) [Compound 2ad, N-Propyl-5-((5-((4-p-tolylthiazol-2-ylamino)methyl)thiazol-2-ylamino)methyl)thiazol-2-amine trihydrochloride]",,> 135 °C (dec.),
"CNc1ncc(CNc2nc(-c3ccc(C)cc3)cs2)s1 (as salt: hydrochloride) [Compound 2n, N-Methyl-5-((4-p-tolylthiazol-2-ylamino)methyl)thiazol-2-amine dihydrochloride]",,114 to 116 °C,
"Fc1ccc(-c2cc(NCc3cnc(NCc4ccccc4)s3)n[nH]2)cc1 (as salt: hydrochloride) [Compound 2k, N-Benzyl-5-((5-(4-fluorophenyl)-1H-pyrazol-3-ylamino)methyl)thiazol-2-amine dihydrochloride]",,78 to 80 °C,
"CNc1ncc(CNc2nc(-c3ccc(Cl)cc3)cs2)s1 [Compound 2aa, 4-(4-Chlorophenyl)-N-((2-(methylamino)thiazol-5-yl)methyl)thiazol-2-amine dihydrochloride]",41.5 ± 9.6%,,
"c1ccc(CNc2ncc(CNc3ncc(Cc4ccccc4)s3)s2)cc1 [Compound 2ag, 5-Benzyl-N-((2-(benzylamino)thiazol-5-yl)methyl)thiazol-2-amine dihydrochloride]",34.2 ± 1.6%,,
"CNc1ncc(CNc2nc(Cc3ccccc3)cs2)s1 (as salt: hydrochloride) [Compound 2af, 4-Benzyl-N-((2-(methylamino)thiazol-5-yl)methyl)thiazol-2-amine dihydrochloride]",,126 to 127 °C,
